In assay [1] the target is T1, Human PPARγ2 (Homo sapiens, UniProt P37231).
T1 construct: The full length human cDNA for PPARγ2 and PPARδ were subcloned into the PGEX-2T and PGEX-KT, respectively, expression vector; made in house; host or cells: E. coli (pGEX-2T vector, Pharmacia)
T1 sequence (P37231 1-505): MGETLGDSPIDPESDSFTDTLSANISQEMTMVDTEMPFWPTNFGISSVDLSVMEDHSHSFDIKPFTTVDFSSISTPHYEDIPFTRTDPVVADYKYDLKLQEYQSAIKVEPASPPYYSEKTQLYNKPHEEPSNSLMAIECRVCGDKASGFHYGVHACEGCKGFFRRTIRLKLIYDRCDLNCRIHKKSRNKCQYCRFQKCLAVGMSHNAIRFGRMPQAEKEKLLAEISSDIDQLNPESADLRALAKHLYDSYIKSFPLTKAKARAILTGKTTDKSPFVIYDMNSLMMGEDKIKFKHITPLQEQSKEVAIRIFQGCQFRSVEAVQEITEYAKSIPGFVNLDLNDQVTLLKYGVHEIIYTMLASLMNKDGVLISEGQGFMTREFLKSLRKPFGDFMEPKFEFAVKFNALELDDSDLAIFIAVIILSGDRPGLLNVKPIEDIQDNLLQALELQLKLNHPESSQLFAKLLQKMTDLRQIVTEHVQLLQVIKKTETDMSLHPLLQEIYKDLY
Briefly: [3H]AD-5075 displacement (receptor binding) assay. Conditions: gst-fusion receptor, 10 nM [3H2]AD-5075, ~16 h at 4 °C. As to the method: Human PPARγ2 and PPARδ, independently, were prepared as gst-fusion proteins in E. coli. The full length human cDNA for PPARγ2 and PPARδ were subcloned into the PGEX-2T and PGEX-KT, respectively, expression vector (Pharmacia). E. coli containing the plasmid were grown, induced, and then harvested by centrifugation. The resuspended pellet was broken in a French press and debris was removed by centrifugation at 12,000Xg. Receptors were purified from the supernatant by affinity chromatography on glutathione sepharose. After application to the column, and 1 wash, receptor was eluted with glutathione. Glycerol was added to stabilize the receptor and aliquots were frozen at -80 °C for later use.
For each assay, an aliquot of receptor (1:1000-1:3000 dilution) was incubated in TEGM (10 mM Tris, pH 7.2, 1 mM EDTA, 10% glycerol, 7 µl/100 ml β-mercaptoethanol, 10 mM Na molybdate, 1 mM dithiothreitol, 5 µg/ml aprotinin, 2 µg/ml leupeptin, 2 µg/ml benzamide and 0.5 mM PMSF) containing 5-10% COS-1 cell cytoplasmic lysate and 10 nM labeled thiazolidinedione ([^3H2]AD-5075, 21 Ci/mmole), ± test compound compound, [^3H2]Example 11, 17 Ci/mmole), ± test compound, respectively. Assays were incubated for ∼16 h at 4 °C in a final volume of 300 µl. […] After centrifugation at 3000 rpm for 10 min at 4 °C, 200 µl of the supernatant fraction was counted in a liquid scintillation counter. […]

The target in assay [2] is T2, Human PPARδ (Homo sapiens, UniProt Q03181).
T2 construct: The full length human cDNA for PPARγ2 and PPARδ were subcloned into the PGEX-2T and PGEX-KT, respectively, expression vector; made in house; host or cells: E. coli (pGEX-KT vector, Pharmacia)
T2 sequence (Q03181 1-441): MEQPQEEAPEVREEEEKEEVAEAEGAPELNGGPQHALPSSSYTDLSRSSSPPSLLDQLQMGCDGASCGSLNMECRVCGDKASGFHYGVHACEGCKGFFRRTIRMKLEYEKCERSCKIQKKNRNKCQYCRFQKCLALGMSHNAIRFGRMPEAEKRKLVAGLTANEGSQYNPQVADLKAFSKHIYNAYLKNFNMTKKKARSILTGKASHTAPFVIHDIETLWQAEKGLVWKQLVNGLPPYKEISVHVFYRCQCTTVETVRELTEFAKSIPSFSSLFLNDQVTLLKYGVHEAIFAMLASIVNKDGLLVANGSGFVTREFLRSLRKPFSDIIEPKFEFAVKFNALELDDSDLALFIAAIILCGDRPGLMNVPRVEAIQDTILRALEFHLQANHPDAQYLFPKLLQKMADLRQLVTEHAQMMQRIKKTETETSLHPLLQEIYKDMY
Briefly: [3H2]Example 11 displacement (receptor binding) assay. Particulars: gst-fusion receptor, [3H2]Example 11, ~16 h at 4 °C. As to the method:
The hPPARδ binding assay comprises the steps of: • (a) preparing multiple test samples by incubating separate aliquots of the receptor hPPARδ with a test compound in TEGM containing 5-10% COS-1 cell cytoplasmic lysate and 2.5 nM labeled ([^3H2]Compound D, 17 Ci/mmole) for a minimum of 12 hours, and preferably for about 16 hours, at 4 °C, wherein the concentration of the test compound in each test sample is different, and preparing a control sample by incubating a further separate aliquot of the receptor hPPARδ under the same conditions but without the test compound; then • (b) removing unbound ligand by adding dextran/gelatin-coated charcoal to each sample while maintaining the samples at 4 °C and allowing at least 10 minutes to pass, then • (c) subjecting each of the test samples and the control sample from step (b) to centrifugation at 4 °C until the charcoal is pelleted; then • (d) counting a portion of the supernatant fraction of each of the test samples and the control sample from step (c) in a liquid scintillation counter and analyzing the results to determine the IC50 of the test compound.
Human PPARγ2 and PPARδ, independently, were prepared as gst-fusion proteins in E. coli. The full length human cDNA for PPARγ2 and PPARδ were subcloned into the PGEX-2T and PGEX-KT, respectively, expression vector (Pharmacia). […]

Structures are written as SMILES.

Compound `Cc1oc(-c2ccccc2)nc1C(O)COc1ccc(CC2SC(=O)NC2=O)cc1` (centres unmarked) [AD-5075] displayed a Kd in assay [1] of 1 nM. Take `CCCc1c(OCCC[S+]([O-])c2ccc(CC(=O)OC)cc2Cl)ccc2c(CC)noc12` (centres unmarked) [Example 11, Methyl 3-chloro-4-(3-(3-ethyl-7-propyl-6-benz-[4,5]-isoxazoloxy)-propylthio)phenylacetate S-oxide]: the Kd in assay [2] is 1 nM.
